Assay results as given in PubChem BioAssay AID212 (DTP/NCI, 2004).
Values joined by “and” are separate entries in the source; they are usually repeats but may differ in a detail not shown here. Equal values may be shown once. Inconclusive results are not listed.

Test system: BDF1 mice, colon carcinoma 38 sc, T/C %
Test: NCI In Vivo Anticancer Drug Screen. Data for tumor model Colon Carcinoma 38 (subcutaneous) in B6D2F1 (BDF1) mice
Details: endpoint: median tumor weight (est.), higher = larger tumour
In short: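 Transplantable tumor in mice; compound-treated vs vehicle-dosed controls. Measured survival or tumor size; value = T ÷ C.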

[1] = dose: 12.5 mg/kg/injection, schedule: Q07DX002 (ip), vehicle: saline with Tween-80
[2] = dose: 25.0 mg/kg/injection, schedule: Q07DX002 (ip), vehicle: saline
[3] = dose: 50.0 mg/kg/injection, schedule: Q07DX002 (ip), vehicle: saline

O=NN(CCCl)C(=O)NCCCl
T/C (dose: 1.0 mg/kg/injection, schedule: Q07DX002 (ip), vehicle: saline with Tween-80): 92 % of control
T/C (dose: 2.5 mg/kg/injection, schedule: Q07DX002 (ip), vehicle: saline with Tween-80): 66 % of control
T/C (dose: 3.0 mg/kg/injection, schedule: Q07DX002 (ip), vehicle: saline + alcohol): 96 % of control
T/C (dose: 4.0 mg/kg/injection, schedule: Q07DX002 (ip), vehicle: saline with Tween-80): 82 % of control
T/C (dose: 4.0 mg/kg/injection, schedule: Q07DX003 (ip), vehicle: saline with Tween-80): 97 % of control and 98 % of control
T/C (dose: 5.0 mg/kg/injection, schedule: Q07DX002 (ip), vehicle: saline with Tween-80): 82 % of control
T/C (dose: 6.0 mg/kg/injection, schedule: Q07DX002 (ip), vehicle: saline + alcohol): 88 % of control
T/C (dose: 8.0 mg/kg/injection, schedule: Q07DX003 (ip), vehicle: saline with Tween-80): 71 % of control and 87 % of control
T/C (dose: 10.0 mg/kg/injection, schedule: Q07DX002 (ip), vehicle: saline with Tween-80): 43 % of control
T/C (dose: 12.0 mg/kg/injection, schedule: Q07DX002 (ip), vehicle: saline + alcohol): 59 % of control
T/C (dose: 20.0 mg/kg/injection, schedule: Q07DX002 (ip), vehicle: saline with Tween-80): 15 % of control
T/C (dose: 24.0 mg/kg/injection, schedule: Q07DX002 (ip), vehicle: saline + alcohol): 37 % of control
T/C (dose: 32.0 mg/kg/injection, schedule: Q07DX003 (ip), vehicle: saline with Tween-80): 24 % of control

O=c1cc(CCl)[nH]nc1CCl
T/C (dose: 3.12 mg/kg/injection, schedule: Q07DX002 (ip), vehicle: saline with Tween-80): 119 % of control
T/C (dose: 6.25 mg/kg/injection, schedule: Q07DX002 (ip), vehicle: saline with Tween-80): 91 % of control
T/C [1]: 93 % of control

CCCC(=O)O
T/C [2]: 121 % of control
T/C [3]: 105 % of control
T/C (dose: 200.0 mg/kg/injection, schedule: Q07DX002 (ip), vehicle: saline): 99 % of control

N=C1C=C[C@]2(O)C[C@H](Cl)CN12
T/C (dose: 1.56 mg/kg/injection, schedule: Q07DX002 (ip), vehicle: saline): 73 % of control
T/C (dose: 3.12 mg/kg/injection, schedule: Q07DX002 (ip), vehicle: saline): 79 % of control
T/C (dose: 6.25 mg/kg/injection, schedule: Q07DX002 (ip), vehicle: saline): 71 % of control
T/C (dose: 12.5 mg/kg/injection, schedule: Q07DX002 (ip), vehicle: saline): 88 % of control

CC(=O)Oc1ccccc1C(=O)O
T/C (dose: 32.0 mg/kg/injection, schedule: Q07DX002 (ip), vehicle: saline with Tween-80): 102 % of control
T/C (dose: 64.0 mg/kg/injection, schedule: Q07DX002 (ip), vehicle: saline with Tween-80): 53 % of control
T/C (dose: 72.0 mg/kg/injection, schedule: Q07DX002 (ip), vehicle: saline with Tween-80): 122 % of control
T/C (dose: 128.0 mg/kg/injection, schedule: Q07DX002 (ip), vehicle: saline with Tween-80): 76 % of control
T/C (dose: 144.0 mg/kg/injection, schedule: Q07DX002 (ip), vehicle: saline with Tween-80): 118 % of control
T/C (dose: 256.0 mg/kg/injection, schedule: Q07DX002 (ip), vehicle: saline with Tween-80): 97 % of control
T/C (dose: 518.0 mg/kg/injection, schedule: Q07DX002 (ip), vehicle: saline with Tween-80): 90 % of control
T/C (dose: 1152.0 mg/kg/injection, schedule: Q07DX002 (ip), vehicle: saline with Tween-80): 118 % of control

C=CCc1cn(C2CC(O)C(CO)O2)c(=O)[nH]c1=O (configuration not stated)
T/C [2]: 85 % of control
T/C [3]: 78 % of control
T/C (dose: 100.0 mg/kg/injection, schedule: Q07DX002 (ip), vehicle: saline): 62 % of control and 65 % of control

COc1cc(Cl)ccc1C
T/C [1]: 99 % of control
T/C (dose: 25.0 mg/kg/injection, schedule: Q07DX002 (ip), vehicle: saline with Tween-80): 71 % of control
T/C (dose: 50.0 mg/kg/injection, schedule: Q07DX002 (ip), vehicle: saline with Tween-80): 68 % of control
T/C (dose: 100.0 mg/kg/injection, schedule: Q07DX002 (ip), vehicle: saline with Tween-80): 82 % of control
T/C (dose: 200.0 mg/kg/injection, schedule: Q07DX002 (ip), vehicle: saline with Tween-80): 89 % of control
T/C (dose: 400.0 mg/kg/injection, schedule: Q07DX002 (ip), vehicle: saline with Tween-80): 89 % of control

C[C@@]1(CO)[C@H](O)CC[C@@]2(C)[C@H]1CC[C@H]1C[C@@H]3C[C@@]12CC[C@@]3(O)COC(=O)CN
T/C (dose: 25.0 micrograms/kg/injection, schedule: Q07DX002 (ip), vehicle: saline + alcohol): 155 % of control
T/C (dose: 100.0 micrograms/kg/injection, schedule: Q07DX002 (ip), vehicle: saline + alcohol): 107 % of control

Oc1ccc(O)cc1
T/C (dose: 6.25 mg/kg/injection, schedule: Q07DX002 (ip), vehicle: suspension in saline): 80 % of control
T/C (dose: 12.5 mg/kg/injection, schedule: Q07DX002 (ip), vehicle: suspension in saline): 95 % of control
T/C (dose: 25.0 mg/kg/injection, schedule: Q07DX002 (ip), vehicle: suspension in saline): 108 % of control
T/C (dose: 50.0 mg/kg/injection, schedule: Q07DX002 (ip), vehicle: suspension in saline): 94 % of control
T/C (dose: 100.0 mg/kg/injection, schedule: Q07DX002 (ip), vehicle: suspension in saline): 97 % of control
